Assay results taken from patent US9701663B2, “Sulfonamide retinoic acid receptor-related orphan receptor modulators and uses thereof” (INNOV17 LLC, priority 2014, dated 2017).

Experiments:
Format in all cases: cell-based
Details in all cases: 72 h; human CD4+ T cells under TH17-polarizing conditions, 3 days; supernatant ELISA
IL-21 = assay: Human TH17 cytokine inhibition measured by ELISA: IL-21
Protocol: (§1) Human TH17 Cytokine Inhibition as Measured by ELISA
(§2) Peripheral blood mononuclear cells (PBMCs) were sourced from freshly prepared leukocyte enriched plasma (buffy coat) from healthy donors (New York Blood Center). PBMCs were isolated by density gradient centrifugation using Ficoll-Paque™ PLUS (GE Healthcare). Human CD4+ T cells were seeded into 96-well plates (5×10^4 cells/well) and activated with plate-bound anti-human (h)-CD3 antibody and soluble h-aCD28 (both at 1 ug/ml; eBioscience) and differentiated into TH17 cells with 20 ng/mL h-IL-6, 5 ng/mL h-TGF-β1, 10 ng/mL h-IL-23 (eBioscience) and 10 ng/mL IL-1 β (Miltenyi Biotec) in serum-free TexMACS Medium (Miltenyi Biotec) supplemented with 1% Penicillin/Streptomycin (Lonza) for 3 days. CD4+ T cells propagated under TH17-polarizing conditions were cultured in the presence or absence of various concentrations of compounds with a final concentration of 0.1% DMSO. Supernatants were collected and stored at −20° C. until assayed for IL-17A, IL-17F and IL-21 levels by “Ready-Set-Go” ELISA kits (eBioscience) as per manufacturer's instructions. Endpoint absorbance was read at 450 nm using a microplate reader (Perkin Elmer).

IL-17A = assay: Human TH17 cytokine inhibition measured by ELISA: IL-17A
Protocol: as §1, §2

IL-17F = assay: Human TH17 cytokine inhibition measured by ELISA: IL-17F
Protocol: as §1, §2

IL-22 = assay: Human TH17 cytokine inhibition measured by ELISA: IL-22

IC50 (IL-21) [µM]	IC50 (IL-17A) [µM]	IC50 (IL-17F) [µM]	IC50 (IL-22) [µM]	Compound
> 10	> 10	> 10		O=S(=O)(CC(F)(F)F)N1CCC(Cn2ccc3cc(-c4cn[nH]c4)ccc32)CC1 [Example 8, 5-(1H-pyrazol-4-yl)-1-((1-((2,2,2-trifluoroethyl)sulfonyl)piper-idin-4-yl)methyl)-1H-indole]
> 10	> 10	> 10	> 10	CS(=O)(=O)N1CCC(Cn2ccc3cc(-c4cn[nH]c4)ccc32)CC1 [Example 50, 1-((1-(methylsulfonyl)piperidin-4-yl)methyl)-5-(1H-pyrazol-4-yl)-1H-indole]
< 10	< 10	< 10		C[C@@H]1C[C@H](Cn2ccc3cc(-c4cn[nH]c4)ccc32)CN1S(=O)(=O)c1ccccc1 (racemic) [Example 47, rac.-cis-1-((-5-methyl-1-(phenylsulfonyl)pyrrolidin-3-yl)methyl)-5-(1H-pyrazol-4-yl)-1H-indole]
< 10	< 10	< 10	< 10	O=S(=O)(c1cccnc1)N1CCC(Cn2ccc3cc(-c4cn[nH]c4)ccc32)CC1 [Example 38, 5-(1H-pyrazol-4-yl)-1-((1-(pyridin-3-ylsulfonyl)piperidin-4-yl)methyl)-1H-indole]
< 10	< 10	< 10	< 10	O=S(=O)(c1ccc(Cl)cc1)N1CCC(Cn2ccc3cc(-c4cn[nH]c4)ccc32)CC1 [Example 36, 1-((1-(4-chlorophenylsulfonyl)piperidin-4-yl)methyl)-5-(1H-pyrazol-4-yl)-1H-indole]
< 10	< 10	< 10		O=S(=O)(CCc1ccccc1)N1CCC(Cn2ccc3cc(-c4cn[nH]c4)ccc32)CC1 [Example 7, 1-((1-(phenethylsulfonyl)piperidin-4-yl)methyl)-5-(1H-pyrazol-4-yl)-1H-indole]
< 10	< 10	< 10		O=S(=O)(c1ccccc1)N1CCC(Cn2ccc3cc(-c4cn[nH]c4)ccc32)CC1 [Example 5, 1-((1-(phenylsulfonyl)piperidin-4-yl)methyl)-5-(1H-pyrazol-4-yl)-1H-indole]
< 10	< 10	< 10	< 10	O=S(=O)(c1ccccc1F)N1CCC(Cn2ccc3cc(-c4cn[nH]c4)ccc32)CC1 [Example 40, 1-((1-(2-fluorophenylsulfonyl)piperidin-4-yl)methyl)-5-(1H-pyrazol-4-yl)-1H-indole]
> 10	< 10	< 10		O=S(=O)(Cc1ccccc1)N1CCC(Cn2ccc3cc(-c4cn[nH]c4)ccc32)CC1 [Example 6, 1-((1-(benzylsulfonyl)piperidin-4-yl)methyl)-5-(1H-pyrazol-4-yl)-1H-indole]
< 10	< 10	< 10		CC1(C)CC(Cn2ccc3cc(-c4cn[nH]c4)ccc32)CN1S(=O)(=O)c1ccccc1 (stereo not shown) [Example 29, 1-((5,5-dimethyl-1-(phenylsulfonyl)pyrrolidin-3-yl)methyl)-5-(1H-pyrazol-4-yl)-1H-indole]
< 10	< 10	< 10		C[C@H]1C[C@H](Cn2ccc3cc(-c4cn[nH]c4)ccc32)CN1S(=O)(=O)c1ccccc1 (racemic) [Example 48, rac.-trans-1-((-5-methyl-1-(phenylsulfonyl)pyrrolidin-3-yl)methyl)-5-(1H-pyrazol-4-yl)-1H-indole]
